Data: patent US6395499B1, “Methods of identifying modulators of a DP prostaglandin receptor” (Merck Frosst Canada & Co., priority 1995, dated 2002)
Blank lines part the entries; values can stand above or below the compound they belong to.

Key:
[1] = biological target: T1, human prostaglandin D2 (DP) receptor (Homo sapiens, UniProt Q13258); experiment: [3H]PGD2 specific binding assay, membranes of pcDNA3-hDP transfected COS-M6 cells; conditions: 0.87 nM [3H]PGD2, 60 min at 30° C., pH 7.0, read-out: Ki, competition for [3H]PGD2 specific binding
T1 construct: The full length coding cDNA was constructed as follows; expressed in transfected cells
T1 sequence (Q13258 1-359): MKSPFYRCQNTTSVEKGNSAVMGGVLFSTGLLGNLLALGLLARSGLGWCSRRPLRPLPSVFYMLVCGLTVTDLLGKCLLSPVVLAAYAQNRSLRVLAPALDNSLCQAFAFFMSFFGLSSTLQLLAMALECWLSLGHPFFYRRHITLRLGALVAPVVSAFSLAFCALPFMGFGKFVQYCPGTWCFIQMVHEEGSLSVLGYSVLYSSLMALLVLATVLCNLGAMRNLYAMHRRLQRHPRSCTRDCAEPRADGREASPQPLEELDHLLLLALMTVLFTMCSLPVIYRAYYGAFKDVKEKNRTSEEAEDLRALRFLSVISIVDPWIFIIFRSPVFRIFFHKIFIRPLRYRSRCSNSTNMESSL
Experimental: FIG. 3—Competition for [^3H]PGD2 specific binding to pcDNA3-hDP transfected COS-M6 membranes. [^3H]PGD2 binding assays were performed as described in Example 6. The percentage maximum [^3H]PGD2 specific binding at each competing ligand concentration was determined for PGD2 (▪), the DP receptor agonist BW245C (●), the DP antagonist BW868C (♦), PGE2 (▴), PGF2a (▾), iloprost (□) and the TP-receptor agonist U46619 (∘), over a concentration range up to 100 μM.
The recently cloned human prostaglandin D2 (DP) receptor was subcloned into the pcDNA3 plasmid (Invitrogen) and transfected into COS-M6 cells by the cationic liposome-mediated transfer of DNA using LiofectAMINE reagent (GIBCO/BRL). The cells were maintained in culture for 72 h, then harvested and membranes prepared by differential centrifugation (1000×g for 10 min, then 100,000×g for 30 min) following lysis of the cells by nitrogen cavitation. [^3H]PGD2 specific binding assays were performed in 10 mM BES adjusted to pH 7.0 with KOH and containing 1.0 mM EDTA, 10 mM MnCl2, 0.87 nM [^3H]PGD2 and […] of protein from the 100,000×g membrane fraction. Incubations were conducted for 60 min at 30° C. prior to separation of the bound and free radioligand by rapid filtration through Whatman GF/B filters presoaked at 4° C. in washing buffer (10 mM BES/KOH (pH 7.0) containing 0.01% (w/v)bovine serum albumin). The filters were washed with approximately 16 ml of washing buffer and the residual [^3H]PGD2 bound to the filter was quantified by liquid scintillation counting. Specific binding was defined as the difference between total binding and non-specific binding, determined in the presence of 1 mM PGD2.
The cloned human DP receptor was transfected into COS-M6 cells and [^3H]PGD2 binding assays were performed with membranes prepared from the transfected cells. […] The rank order of affinity for prostaglandins and related synthetic analogs at the human DP receptor was therefore: BW245C>PGD2>BW868C>PGE2>PGF2a=iloprost>U46619. This rank order of potency has been predicted for the DP receptor from previous pharmacological studies.

[2] = biological target: T1, human prostaglandin D2 (DP) receptor; experiment: cAMP assay in HEK293 (EBNA) cells stably expressing the DP receptor; format: cell-based; conditions: for EC50: 15 min at 37° C., 100 μM RO-20-1724, read-out: EC50, increase in intracellular cAMP production; for cAMP production: concentrations up to 1 μM
Experimental: FIG. 5—Increases in intracellular cAMP production in HEK293 (EBNA) cells stably expressing the DP receptor is shown. cAMP assays were performed as described in Example 7. The pmoles of cAMP produced per 1.5×10^5 cells at each ligand concentration was determined for PGD2 (n), the DP receptor agonist BW245C (●), the DP antagonist BW868C (♦), PGE2 (▴), PGE1 ( ? ), PGF2α (▾), iloprost (□) and the TP-receptor agonist U46619 (∘), over a concentration range up to 1 μM.
The recently cloned human prostaglandin D2 (DP) receptor was subcloned into the pCEP4 plasmid (Invitrogen) and transfected into HEK293 (EBNA) cells by the cationic liposome-mediated transfer of DNA using LipofectAMINE™ (Gibco/BRL) reagent. Cells were maintained in culture for 48 h post transfection and then trypsinized, diluted and replated in the presence 200 μg/ml hygromycin B (Calbiochem) to select for transfected cells. Cells were maintained under selection for 3 weeks to ensure a homogeneous population of cells expressing the DP receptor.
(§1) Increases in intracellular cAMP production following agonist challenge was performed in HEK293 (EBNA) cells expressing the DP receptor and control HEK293 (EBNA) cells. Cells were harvested at approximately 80% confluence by incubation in enzyme-free cell dissociation buffer (Gibco/BRL), washed once with HEPES-buffered Krebs-Ringer solution {1.25 mM MgSO4, 1.5 mM CaCl2, 5 mM KCl, 124 mM NaCl, 8 mM glucose, 1.25 mM KH2PO4, and 25 mM HEPES/KOH (pH 7.4)} and resuspended in the same buffer. The cAMP assay was performed in a final volume of 0.2 ml of HEPES-buffer Krebs-Ringer solution and 100 μM of the phosphodiesterase type IV inhibitor RO-20-1724 (Biomol), to prevent hydrolysis of cAMP. RO-20-1724 and the compounds under evaluation were added to the incubation mixture in dimethyl sulfoxide or ethanol to a final vehicle concentration 0.35% (v/v) which was kept constant in all samples. The reaction was initiated by the addition of 1.5×10^5 cells per incubation. Samples were incubated at 37° C. for 15 min and the reaction was then terminated by immersing the samples in boiling water for 3 minutes. Cell viability was always ≧96% as determined by trypan blue exclusion. Measurement of cAMP was performed by radioimmunoassay using [^125I]cAMP (Amersham International).

[3] = test system: control HEK293 (EBNA) cells; experiment: Intracellular calcium [Ca2+]i assay in control HEK293 (EBNA) cells; format: cell-based; conditions: 1000 nM
Experimental: (§2) Intracellular calcium [Ca^2+]i measurements were performed with both the DP-HEK293 (EBNA) stable cell line and control HEK293 (EBNA) cells. The cells were harvested with enzyme-free cell dissociation buffer, recovered by centrifugation at 300×g for 5 min at 22° C. and resuspended at 2×10^6 cells/ml in DMEM growth medium without G418 or hygromycin B. The cells were incubated at 37° C., 6% CO2 for 45 min with 2 μM fura-2 AM. Unincorporated fura-2 AM was removed by three washes in HBSS (1.3 mM CaCl2, 5 mM KCl, 0.3 mM KH2PO4, 0.9 mM MgCl2, 138 mM NaCl, 4 mM NaHCO3, 0.3 mM Na2HPO4, 5.6 mM D-glucose) by centrifugation at 300×g, for 5 min at 22° C. The cells were then resuspended at a final concentration of 10^6 cells/ml in HBSS. [Ca^2+]i was measured following agonist challenge of 2*10^6 fura-2 AM loaded cells using a Perkin-Elmer LS-5 spectrophotometer essentially as described (Chan et al., 1994, Journal of Pharmacology and Experimental Therapeutics 269(3): 891-896).

[4] = biological target: T2, DP receptor (Homo sapiens, UniProt Q13258); experiment: Intracellular calcium [Ca2+]i assay in DP-HEK293 (EBNA) stable cell line; format: cell-based; parameters: [Ca2+]i upon ionophore challenge at end of experiment (viability check): dose or concentration left out as unconfirmed; conditions: for calcium mobilization [Ca2+]i: DP-expressing HEK293 (EBNA) cells
T2 construct: The full length coding cDNA was constructed as follows; expressed in transfected cells
T2 sequence (Q13258 1-359): T1 sequence (Q13258 1-359)
Experimental: FIG. 4—Increases in intracellular calcium [Ca^2+]i in HEK293 (EBNA) cells stably expressing the DP receptor is shown. DP-HEK293 (EBNA) cells were harvested and prepared as described in Example 8. […] At the end of each experiment cells were challenged with 1 μM ionomycin to release [Ca^2+]i followed by quenching of the [Ca^2+]i release with 1 mM EDTA.
as §2

[5] = test system: control HEK293 (EBNA) cells; experiment: cAMP assay in control HEK293 (EBNA) cells; format: cell-based; conditions: 1 μM; for cAMP production in control cells: control HEK293 (EBNA) cells
Experimental: as §1

Structure (SMILES): O=C(O)CCCCCCC1C(=O)NC(=O)N1CCC(O)C1CCCCC1 (stereo not drawn) [BW245C]
- Ki [1]: 0.9 nM
- EC50 [2]: 0.6 nM

Structure (SMILES): CCCCC[C@H](O)/C=C/[C@H]1C(=O)C[C@H](O)[C@@H]1C/C=C\CCCC(=O)O [PGD2, Prostaglandin D2]
- change in [Ca2+]i in control cells [3]: did not provoke any change
- Ki [1]: 1.1 nM
- fold less potent than BW245C (cAMP EC50) [2]: 10 fold
- EC50 [2]: 6.4 nM
- cAMP production [2]: > 140 pmol cAMP/1.5×10^5 cells
- calcium mobilization [Ca2+]i ([4]; 10 to 1000 nM): increased calcium mobilization
- calcium mobilization [Ca2+]i ([4]; concentrations below 10 nM, versus vehicle): failed to induce a response

Structure (SMILES): CCCCC[C@H](O)/C=C/[C@H]1[C@H](O)CC(=O)[C@@H]1CCCCCCC(=O)O [PGE1]
- fold less cAMP in control cells than in similarly challenged DP-expressing cells [5]: 14 fold
- cAMP production in control cells [5]: 6 pmoles/1.5×10^5 cells

Structure (SMILES): C[C@H](CCC(=O)O)C[C@H](C)C[C@H](C)C(=O)/C=C(\O)[C@H](C)C[C@H](C)C/C=C/[C@@H](C)[C@@H](O)[C@@H](C)[C@@H](O)C[C@@H]1CC[C@@](C)([C@H]2CC[C@@](C)([C@@H](C)O)O2)O1 [ionomycin]
- [Ca2+]i upon ionophore challenge at end of experiment (viability check) [4]: large increase in [Ca^2+]i

More lines, main results first:

- Ki [1]: 1.7 nM
- cAMP production [2]: 20 pmol cAMP/1.5×10^5 cells
Structure (SMILES): O=C(O)CCCCCCC1C(=O)N(Cc2ccccc2)C(=O)N1NCC(O)C1CCCCC1 (stereo not drawn) [BW868C]

- Ki [1]: 101 nM
Structure (SMILES): CCCCC[C@H](O)/C=C/[C@H]1[C@H](O)CC(=O)[C@@H]1C/C=C\CCCC(=O)O [PGE2]
- fold less cAMP in control cells than in similarly challenged DP-expressing cells [5]: 14 fold
- cAMP production in control cells [5]: 6 pmoles/1.5×10^5 cells

- Ki [1]: 512 nM
Structure (SMILES): CCCCC[C@H](O)/C=C/[C@@H]1[C@@H](C/C=C\CCCC(=O)O)[C@@H](O)C[C@H]1O [PGF2a]

- Ki [1]: ~1850 nM
Structure (SMILES): CCCCC[C@H](O)/C=C/[C@@H]1[C@@H](C/C=C\CCCC(=O)O)[C@H]2CO[C@@H]1C2 [U46619]

- Ki [1]: 630 nM
- EC50 [2]: > 500 nM
Structure (SMILES): CC#CCC(C)[C@H](O)/C=C/[C@@H]1[C@H]2C/C(=C/CCCC(=O)O)C[C@H]2C[C@H]1O (stereo partly drawn) [iloprost]
